Test results taken from patent US12612409B2, “Pyrrolopyrimidines as CFTR potentiators” (Cystic Fibrosis Foundation, priority 2016, dated 2026).

Columns and labels:
[1] = target: T1, CFTR in F508del/F508del primary CF hBE cells (Homo sapiens, UniProt P13569, DEL508-508); assay: Ussing chamber electrophysiology assay of CFTR potentiation in F508del/F508del CF bronchial epithelial cells (27° C.); type: cell-based
T1 construct: Primary cystic fibrosis human bronchial epithelial (CF hBE) cells were expanded and cultured; endogenous in cells; host or cells: primary CF human bronchial epithelial cells, genotype F508del/F508del
T1 sequence (P13569 with tags, fused parts or gaps DEL508-508): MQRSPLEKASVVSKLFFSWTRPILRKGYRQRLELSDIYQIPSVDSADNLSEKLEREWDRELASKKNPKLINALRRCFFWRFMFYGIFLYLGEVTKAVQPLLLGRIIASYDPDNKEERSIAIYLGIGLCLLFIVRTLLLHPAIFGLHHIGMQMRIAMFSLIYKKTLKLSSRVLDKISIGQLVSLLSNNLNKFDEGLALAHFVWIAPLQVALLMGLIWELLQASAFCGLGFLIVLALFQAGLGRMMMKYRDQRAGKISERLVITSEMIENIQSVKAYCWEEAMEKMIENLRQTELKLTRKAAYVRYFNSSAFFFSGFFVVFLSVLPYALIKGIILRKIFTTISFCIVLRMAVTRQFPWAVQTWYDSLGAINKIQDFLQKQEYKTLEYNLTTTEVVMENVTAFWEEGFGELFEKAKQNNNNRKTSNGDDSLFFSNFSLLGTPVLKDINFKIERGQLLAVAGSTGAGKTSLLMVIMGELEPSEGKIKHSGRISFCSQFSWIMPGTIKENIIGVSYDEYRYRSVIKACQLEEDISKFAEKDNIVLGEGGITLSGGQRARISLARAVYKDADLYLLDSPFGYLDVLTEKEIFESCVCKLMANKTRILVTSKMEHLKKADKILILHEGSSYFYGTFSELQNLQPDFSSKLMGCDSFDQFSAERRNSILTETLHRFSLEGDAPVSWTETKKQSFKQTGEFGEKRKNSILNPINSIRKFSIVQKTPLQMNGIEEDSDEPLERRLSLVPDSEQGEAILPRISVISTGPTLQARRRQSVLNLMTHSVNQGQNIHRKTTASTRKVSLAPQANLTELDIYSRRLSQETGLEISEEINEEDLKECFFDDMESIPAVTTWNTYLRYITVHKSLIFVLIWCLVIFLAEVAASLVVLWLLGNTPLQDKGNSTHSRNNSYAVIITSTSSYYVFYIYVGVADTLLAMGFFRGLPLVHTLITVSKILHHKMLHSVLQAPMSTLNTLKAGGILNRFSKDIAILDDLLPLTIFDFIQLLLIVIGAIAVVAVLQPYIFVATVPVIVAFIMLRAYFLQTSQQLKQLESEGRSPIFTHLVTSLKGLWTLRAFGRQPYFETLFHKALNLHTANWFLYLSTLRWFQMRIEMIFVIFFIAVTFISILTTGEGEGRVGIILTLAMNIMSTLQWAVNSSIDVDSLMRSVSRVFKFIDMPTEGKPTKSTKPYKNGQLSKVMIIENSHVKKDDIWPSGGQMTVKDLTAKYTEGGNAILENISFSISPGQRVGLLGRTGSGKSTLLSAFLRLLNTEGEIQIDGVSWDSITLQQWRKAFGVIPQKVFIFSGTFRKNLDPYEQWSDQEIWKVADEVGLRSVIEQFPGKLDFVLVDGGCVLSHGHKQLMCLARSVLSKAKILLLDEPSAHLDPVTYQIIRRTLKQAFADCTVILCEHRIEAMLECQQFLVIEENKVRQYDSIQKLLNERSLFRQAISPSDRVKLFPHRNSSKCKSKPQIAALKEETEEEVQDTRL
Procedure, shortened: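 Short-circuit current was recorded under zero-voltage clamp across primary CF bronchial epithelia cultured >30 days at air/liquid interface, bathed apically and basolaterally in HEPES-buffered saline. Sequential additions: amiloride (30 uM), forskolin (10 uM), compound at 4 increasing levels, CFTRinh-172 (20 uM). Responses normalised between DMSO (0%) and maximal positive-control potentiator (100%).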

[2] = target: T2, recombinant F508del V470 CFTR in Fischer rat thyroid (FRT) cells (Homo sapiens, UniProt P13569, DEL508-508); assay: FRT ion flux assay of F508del CFTR potentiation; type: cell-based; settings: FRT cells expressing F508del V470 CFTR, forskolin 20 uM, 27° C. pre-incubation
T2 construct: expressed in transfected cells
T2 sequence (P13569 with tags, fused parts or gaps DEL508-508): as above
Procedure, shortened: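 Potentiation read as YFP quench ~21 s after iodide buffer addition, as second/initial fluorescence ratio normalised between DMSO (0%) and reference potentiator (100%).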

Row | SMILES | EC50 [1] [nM] | EC50 [2] [nM]
1 | CCC(c1cn(-c2ccccc2F)nn1)n1c(C#N)c(-c2cnc(C(F)(F)F)nc2)c2c(N)ncnc21 (single isomer, unassigned) [Example 22, 4-Amino-7-{1-[1-(2-fluorophenyl)-1H-1,2,3-triazol-4-yl]propyl}-5-[2-(trifluoromethyl)pyrimidin-5-yl]-7H-pyrrolo[2,3-d]pyrimidine-6-carbonitrile] | 6.84 | 4.05
2 | CC(c1cc(-c2ccccc2F)no1)n1cc(-c2ccc(Cl)cc2)c2c(N)ncnc21 (single isomer, unassigned; enantiomer 2) [Example 182, (−)-5-(4-Chlorophenyl)-7-{1-[3-(2-fluorophenyl)-1,2-oxazol-5-yl]ethyl}-7H-pyrrolo[2,3-d]pyrimidin-4-amine, enantiomer 2] | 446 | 468
3 | CNc1ncnc2c1c(-c1ccc(Cl)cc1)cn2C(C)c1cn(-c2ccccc2F)nn1 (stereo not shown) [Example 318, 5-(4-Chlorophenyl)-7-{1-[1-(2-fluorophenyl)-1H-1,2,3-triazol-4-yl]ethyl}-N-methyl-7H-pyrrolo[2,3-d]pyrimidin-4-amine] | 397 | 2990
4 | COc1cccc(-c2cc(C(C)n3cc(-c4ccc(Cl)cc4)c4c(N)ncnc43)on2)c1 (stereo not shown) [Example 261, 5-(4-Chlorophenyl)-7-{1-[3-(3-methoxyphenyl)-1,2-oxazol-5-yl]ethyl}-7H-pyrrolo[2,3-d]pyrimidin-4-amine] | 232 | 169
5 | Nc1ncnc2c1c(C1CCCO1)cn2Cc1cn(-c2ccccc2F)nn1 (stereo not shown) [Example 198, 7-{[1-(2-Fluorophenyl)-1H-1,2,3-triazol-4-yl]methyl}-5-(tetrahydrofuran-2-yl)-7H-pyrrolo[2,3-d]pyrimidin-4-amine] | 2120 | > 25000
6 | Nc1ncnc2c1c(-c1ccc(Cl)cc1)cn2Cc1cnc(-c2ccccc2F)[nH]1 [Example 263, 5-(4-Chlorophenyl)-7-{[2-(2-fluorophenyl)-1H-imidazol-5-yl]methyl}-7H-pyrrolo[2,3-d]pyrimidin-4-amine] | 21.6 | 199
7 | CCC(c1cn(-c2ccc(F)c(F)c2)nn1)n1cc(-c2cnc(C(F)(F)F)nc2)c2c(N)ncnc21 (single isomer, unassigned; enantiomer 2) [Example 154, 7-{1-[1-(3,4-Difluorophenyl)-1H-1,2,3-triazol-4-yl]propyl}-5-[2-(trifluoromethyl)pyrimidin-5-yl]-7H-pyrrolo[2,3-d]pyrimidin-4-amine, enantiomer 2] | 327 | 630
8 | CC(c1cn(-c2ncccc2F)nn1)n1ccc2c(Nc3ccc(OC4CC4)cc3)ncnc21 (stereo not shown) [Example 288, [4-(Cyclopropyloxy)phenyl]-7-{1-[1-(3-fluoropyridin-2-yl)-1H-1,2,3-triazol-4-yl]ethyl}-7H-pyrrolo[2,3-d]pyrimidin-4-amine] | 39.6 | 90.6
9 | COc1ncccc1-c1cn(C(c2cn(-c3ccccc3F)nn2)C2CC2)c2ncnc(N)c12 (stereo not shown) [Example 297, 7-{Cyclopropyl[1-(2-fluorophenyl)-1H-1,2,3-triazol-4-yl]methyl}-5-(2-methoxypyridin-3-yl)-7H-pyrrolo[2,3-d]pyrimidin-4-amine] | 40.1 | 57.5
10 | CC(c1cn(-c2ccccc2F)nn1)n1cc(-c2ccc(Cl)cc2)c2c(N)ncnc21 (single isomer, unassigned) [Example 112] | 17.5 | 68.6
11 | CCC(c1cn(-c2ccc(F)cc2F)nn1)n1c(C#N)c(-c2cnc(C(F)(F)F)nc2)c2c(N)ncnc21 (single isomer, unassigned) [Example 16, 4-Amino-7-{1-[1-(2,4-difluorophenyl)-1H-1,2,3-triazol-4-yl]propyl}-5-[2-(trifluoromethyl)pyrimidin-5-yl]-7H-pyrrolo[2,3-d] pyrimidin-6-carbonitrile] | 9 | 6.39
12 | CCC(c1cn(-c2ccccc2F)nn1)n1cc(-c2cc(F)cnc2OC)c2c(N)ncnc21 (stereo not shown) [Example 223, 7-{1-[1-(2-Fluorophenyl)-1H-1,2,3-triazol-4-yl]propyl}-5-(5-fluoro-2-methoxypyridin-3-yl)-7H-pyrrolo[2,3-d]pyrimidin-4-amine] | 7.23 | 11.1

More lines, in order of falling EC50 [1], values ahead:

Row | EC50 [1] [nM] | EC50 [2] [nM] | SMILES
13 | 2330 | 2950 | CCC(c1cn(-c2ccc(F)cc2F)nn1)n1cc(-c2cnc(C(F)F)nc2)c2c(N)ncnc21 (single isomer, unassigned; enantiomer 2) [Example 168, 5-[2-(Difluoromethyl)pyrimidin-5-yl]-7-{1-[1-(2,4-difluorophenyl)-1H-1,2,3-triazol-4-yl]propyl}-7H-pyrrolo[2,3-d]pyrimidin-4-amine, enantiomer 2]
14 | 305 | 509 | COc1ncc(-c2cn(C(C)c3cc(-c4ccccc4F)no3)c3ncnc(N)c23)cn1 (single isomer, unassigned; (-)) [Example 183, (−) 7-{1-[3-(2-fluorophenyl)-1,2-oxazol-5-yl]ethyl}-5-(2-methoxypyrimidin-5-yl)-7H-pyrrolo[2,3-d]pyrimidin-4-amine]
15 | 267 | 96.8 | Cc1c(C(C)n2c(C#N)c(-c3cnc(C(F)(F)F)nc3)c3c(N)ncnc32)nnn1-c1ccccc1F (single isomer, unassigned) [Example 13, 4-amino-7-(1-(1-(2-fluorophenyl)-5-methyl-1H-1,2,3-triazol-4-yl)ethyl)-5-(2-(trifluoromethyl)pyrimidin-5-yl)-7H-pyrrolo[2,3-d] pyrimidine-6-carbonitrile]
16 | 133 | 98.6 | CC(=O)c1ccc(-c2cn(C(C)c3cn(-c4ccccc4F)nn3)c3ncnc(N)c23)cc1 (stereo not shown) [Example 96, 1-[4-(4-Amino-7-{1-[1-(2-fluorophenyl)-1H-1,2,3-triazol-4-yl]ethyl}-7H-pyrrolo[2,3-d]pyrimidin-5-yl)phenyl]ethanone]
17 | 111 | 659 | CC(C)c1cc(Cn2cc(-c3ccc(Cl)cc3)c3c(N)ncnc32)on1 [Example 283, 5-(4-Chlorophenyl)-7-{[3-(propan-2-yl)-1,2-oxazol-5-yl]methyl}-7H-pyrrolo[2,3-d]pyrimidin-4-amine]
18 | 70.3 | 77.6 | CC(c1cn(-c2ccccc2F)nn1)n1c(C#N)c(-c2cnc(C(F)(F)F)nc2)c2c(N)ncnc21 (single isomer, unassigned) [Example 10, 4-Amino-7-{1-[1-(2-fluorophenyl)-1H-1,2,3-triazol-4-yl]ethyl}-5-[2-(trifluoromethyl)pyrimidin-5-yl]-7H-pyrrolo[2,3-d]pyrimidine-6-carbonitrile]
19 | 59 | 328 | Nc1ncnc2c1c(-c1ccc3c(c1)CCO3)cn2Cc1cn(-c2ccccc2F)nn1 [Example 74, 5-(2,3-Dihydro-1-benzofuran-5-yl)-7-{[1-(2-fluorophenyl)-1H-1,2,3-triazol-4-yl]methyl}-7H-pyrrolo[2,3-d]pyrimidin-4-amine]
20 | 42.6 | 19.1 | CCC(c1cn(-c2ccccc2)nn1)n1cc(-c2cncnc2OC)c2c(N)ncnc21 (single isomer, unassigned; enantiomer 2) [Example 128, (+) 5-(4-Methoxypyrimidin-5-yl)-7-[1-(1-phenyl-1H-1,2,3-tnazol-4-yl)propyl]-7H-pyrrolo[2,3-d]pyrimidin-4-amine, enantiomer 2]
21 | 41 | 95.9 | CC(C)n1cc(Cn2c(C#N)c(-c3ccc(Cl)cc3)c3c(N)ncnc32)cn1 [Example 25, 4-Amino-5-(4-chlorophenyl)-7-{[1-(propan-2-yl)-1H-pyrazol-4-yl]methyl}-7H-pyrrolo[2,3-d]pyrimidine-6-carbonitrile]
22 | 34.8 | 45.5 | CSc1ccc(-c2cn(C(C)c3cn(-c4ccccc4F)nn3)c3ncnc(N)c23)c(F)c1 (stereo not shown) [Example 90, 5-[2-Fluoro-4-(methylsulfanyl)phenyl]-7-{1-[1-(2-fluorophenyl)-1H-1,2,3-triazol-4-yl]ethyl}-7H-pyrrolo[2,3-d]pyrimidin-4-amine]
23 | 9 | 24.6 | CCC(c1cn(-c2ccc(F)cc2F)nn1)n1cc(-c2cnc(OC)c(F)c2)c2c(N)ncnc21 (single isomer, unassigned; enantiomer 2) [Example 166, 7-{1-[1-(2,4-Difluorophenyl)-1H-1,2,3-triazol-4-yl]propyl}-5-(5-fluoro-6-methoxypyridin-3-yl)-7H-pyrrolo[2,3-d]pyrimidin-4-amine, enantiomer 2]
24 | 2.24 | 2.33 | N#Cc1c(-c2cnc(C(F)(F)F)nc2)c2c(N)ncnc2n1Cc1cnn(-c2ccc(F)cc2F)c1 [Example 29, 4-Amino-7-{[1-(2,4-difluorophenyl)-1H-pyrazol-4-yl]methyl}-5-[2-(trifluoromethyl)pyrimidin-5-yl]-7H-pyrrolo[2,3-d]pyrimidine-6-carbonitrile]
25 | 1.66 | 0.55 | CC(c1cnn(-c2ccccc2F)c1)n1c(C#N)c(-c2cnc(C(F)F)nc2)c2c(N)ncnc21 (single isomer, unassigned) [Example 1, 4-Amino-5-[2-(difluoromethyl)pyrimidin-5-yl]-7-{1-[1-(2-fluorophenyl)-1H-pyrazol-4-yl]ethyl}-7H-pyrrolo[2,3-d]pyrimidine-6-carbonitrile]
26 | 1.3 | 2.18 | Nc1ncnc2c1c(-c1cnc(C(F)(F)F)nc1)c(Br)n2Cc1cnn(-c2ccccc2F)c1 [Example 40, 6-bromo-7-{[1-(2-fluorophenyl)-1H-pyrazol-4-yl]methyl}-5-[2-(trifluoromethyl)pyrimidin-5-yl]-7H-pyrrolo[2,3-d]pyrimidin-4-amine]
